Source: US12383500B2, “Nanoliposome compositions and methods of using the same” (United States Government as represented by the Department …, priority 2018, dated 2025)

What was measured:
[1] = system: human umbilical vein ECs; format: cell-based; settings: medin + NLGM1 + brusatol (1 μM)
[2] = system: human umbilical vein ECs; assay: Endothelial cell oxidative stress (superoxide, dihydroethidium fluorescence); format: cell-based
[3] = system: Nrf2; assay: Nuclear Nrf2, HO-1 and NQO1 protein in ECs, Western blot; format: cell-based, human
Protocol: Activated Nrf-2 protein was measured by separating the nuclear from cytosolic components using NE-PER Nuclear and Cytoplasmic Extraction kit (Thermo Scientific, Rockford IL) and using anti-Nrf2 primary antibody (1:500, Cell Signaling) on nuclear proteins using Western blot with tubulin as loading control. Heme oxygenase (HO)-1 and NAD(P)H Quinone dehydrogenase 1 (NQO1) proteins were measured from whole cell lysates using anti-HO-1 (1:1000, Cell Signaling Technology) and anti-NQO1 (1:1000, Cell Signaling) primary antibodies.

[4] = system: human umbilical vein ECs; assay: Endothelial cell immune activation (gene and protein expression of IL-8, IL-6, ICAM-1, PAI-1); format: cell-based
Protocol: (§1) Endothelial cell immune activation. Primary culture human umbilical vein ECs (passages 4-8, Lonza, Walkersville MD) were seeded into 6-well plates and grown to full confluence. Human umbilical vein ECs have been extensively used to study vascular cell behavior in neurodegenerative disease studies such as AD and VaD as they show similarity in properties as brain ECs, including Aβ metabolism^23, 24, expression of tight junction proteins^25 and metabolic interactions with neural cells^26. ECs were exposed to 20 hours of vehicle or medin (5 μM, dose chosen as this was the mean medin concentration found in human vascular tissue) without or with NLGM1 (300 μM). Additional replicates were also treated with NLGM1 (300 μM) plus transcription factor nuclear factor erythroid 2-related factor 2 (Nrf2) inhibitor brusatol (1 μM). EC immune activation was assessed using gene and protein expressions of inflammation-related cytokines/chemokines interleukin (IL)-8, IL-6, intercellular adhesion molecule (ICAM)-1) and plasminogen activator inhibitor (PAI)-1 (primers from IDT DNA Technologies, Coralville IL)^6, 16. Following lysis, RNA was extracted and converted to cDNA using Aurum Total RNA Mini Kit and iScript cDNA synthesis kit (Bio-Rad Laboratories, Coralville IA) with β-actin as reference normalization gene normalization. […] The conditioned cell media from treated ECs were analyzed for IL-8 and IL-6 protein by enzyme linked immunosorbent assay (ELISA) using DuoSet kit (R&D Systems, Minneapolis MN). ICAM-1 protein was measured from whole cell lysate using ICAM-1 ELISA kit (R&D Systems). PAI-1 and phosphorylated NFκB (phospho-NFκB p65, Ser536, 93H1) proteins were measured using Western blot (1:500, Cell Signaling Technology, Danvers MA).

[5] = system: NFκB; assay: NFκB activation (phosphorylated NFκB) in ECs, Western blot; format: cell-based, human; settings: post-exposure to medin
Protocol: as §1

[6] = system: Human primary astrocytes; assay: Astrocyte monoculture IL-8 production; format: cell-based; settings: astrocytes exposed 20 hours to conditioned media from medin (5 μM)-treated ECs
Protocol: Astrocyte monoculture. Human primary astrocytes (passage 3, Gibco, Madison WI) were seeded in gelatin matrix (4×10^4 cells/cm^2) coated plates, allowed to attach overnight and exposed for 20 hours to vehicle, medin (5 μM), conditioned media from vehicle-treated ECs (10% vol/vol exchange) or conditioned media from medin (5 μM)-treated ECs. Conditioned media IL-8 were measured by ELISA.

[7] = system: human adipose and leptomeningeal arterioles; assay: Endothelial function of human arterioles exposed to medin; settings: medin 1 μM; Aβ42 0.5 μM
[8] = system: Human primary astrocytes with human umbilical vein ECs; assay: 3D chip astrocyte and endothelial cell coculture IL-8; format: cell-based; settings: medin treated chips with ECs compared to medin treated chips without ECs; 20 hours
Description: Microfluidic chip fabrication and 3D chip astrocyte and endothelial cell coculture. The microfluidic platform was fabricated in polydimethylsiloxane (PDMS) using standard SU-8 photolithography and replica molding technique, consisting of two side channels for seeding of endothelial cells (ECs) and a central region for astrocyte culture. The dimensions of the side channels' (length, width and height, are 4 mm, 250 μm and 200 μm respectively. The width of the 3D central region is 2 mm Elliptical micro-posts were localized within the central tissue region (500 um width, 100 um height) with specific micro-post spacing to optimize alignment of the astrocytes, while maintaining cellular connectivity and paracrine signaling. Creation of the master silicon wafer through photolithography was executed through spin-coating of SU-8 on a wafer to a height of 200 μm. The wafer was soft-baked, then exposed to UV through a transparent photomask with the chip design. After post-baking, the developed wafer was used as the substrate for soft lithography with PDMS replica molding. A PDMS base: curing agent ratio of 10:1 was used. Then, the PDMS channels were bonded to glass slides through oxygen plasma. […]
Human umbilical vein ECs were seeded into the side channels (2×10^6 cells/mL in EC media) overnight. […] Conditioned media IL-8 were measured using ELISA.

[9] = system: adipose arterioles exposed to amyloid LC proteins; assay: Endothelial function (max response to acetylcholine) of adipose arterioles exposed to amyloid LC proteins; set-up: species or system human; settings: NLs conjugated with clusterin (300 ng/mL), control 91.6±2%
Protocol: Attempts to formulate NLs (cholesterol and phosphatidylcholine) that are conjugated with clusterin (300 ng/mL), both non-covalently as well as covalently through PEGylation, was successful.

[10] = system: adipose arterioles exposed to amyloid LC proteins; settings: LC from AL light chain amyloidosis patients; cited from earlier work
[11] = medin + NLGM1 + brusatol (1 μM)
[12] = ECs 20 hours, medin 5 μM without or with co-treatment
[13] = ECs 20 hours, medin 5 μM without or with co-treatment, ELISA of conditioned media

Question: Which results are given for brusatol?
Answer: protective effect of NLGM1 in terms of cell viability [1]: reversed; protective effect of NLGM1 on medin-induced superoxide production [2, 11]: abolished; increase in HO-1 by NLGM1 co-treatment with medin [3, 11]: abolished; increase in NQO1 by NLGM1 co-treatment with medin [3, 11]: abolished; protective effect of NLGM1 against medin-induced EC immune activation ([4]; medin + NLGM1 + brusatol (1 μM), FIG. 8H-K): did not abolish

Question: With “medin: recombinant 50-amino acid amyloid peptide, cleavage product of milk fat globule-EGF factor 8 protein” as the molecule, how does the “NFκB activation (phosphorylated NFκB) in ECs, peak” value [5] read?
Answer: 1 h

Question: What about the “NFκB activation (phosphorylated NFκB) in ECs, persistence” value [5] of the same molecule?
Answer: 20 h

Question: What about the “NFκB activation (phosphorylated NFκB) in ECs, start” value [5] of the same molecule?
Answer: 15 min

Question: What about the “astrocyte IL-8 production” value [6] of the same molecule?
Answer: significant increase

Question: And the EC superoxide production ([2]; ECs 20 hours, medin without or with NLGM1)?
Answer: increased

Question: What about the “endothelial and smooth muscle dysfunction compared to control response” value [7] of the same molecule?
Answer: caused endothelial, but not smooth muscle dysfunction

Question: What about the “astrocyte media IL-8” value [8] of the same molecule?
Answer: significantly higher

Question: What about the “nuclear Nrf2 (Nrf2 activation)” value ([3]; ECs treated with the substance alone) of the same molecule?
Answer: no accompanying Nrf2 activation

Question: And the “EC ICAM-1 gene expression” value [4, 12]?
Answer: increased

Question: And the “EC IL-6 gene expression” value [4, 12]?
Answer: increased

Question: And the “EC IL-8 gene expression” value [4, 12]?
Answer: increased

Question: And the “EC PAI-1 gene expression” value [4, 12]?
Answer: increased

Question: What about the “EC IL-6 protein expression” value [4, 13] of the same molecule?
Answer: increased

Question: What about the “EC IL-8 protein expression” value [4, 13] of the same molecule?
Answer: increased

Question: What about the “EC ICAM-1 protein expression” value ([4]; ECs 20 hours, medin 5 μM without or with co-treatment, ELISA of whole cell lysate) of the same molecule?
Answer: increased

Question: And the “EC PAI-1 protein expression” value ([4]; ECs 20 hours, medin 5 μM without or with co-treatment, Western blot)?
Answer: increased

Question: For Aβ42: beta amyloid peptide, which “endothelial and smooth muscle dysfunction compared to control response” value [7] is on record?
Answer: caused endothelial, but not smooth muscle dysfunction

Question: Which “max response to acetylcholine” value [9] does the source give for “free clusterin: 80-kDa chaperone glycoprotein; sCLU isoform, commercial human recombinant clusterin protein” here?
Answer: 86.4±3.9%

Question: And the “endothelial dysfunction in human arterioles exposed to amyloidogenic light chain (LC) proteins” value [10]?
Answer: reversed

Question: Which results are given for `[O-][S+](c1ccccc1)c1ccc2nnnn2n1` (stereo not shown) [RO106-9920, reference compound]?
Answer: EC ICAM-1 gene expression [4, 12]: abolished; EC IL-6 gene expression [4, 12]: abolished; EC IL-8 gene expression [4, 12]: abolished; EC PAI-1 gene expression [4, 12]: abolished
